Patent EP1923473B1, “Bis-diglycolamides (BISDGA) as new extractants for lanthanides [Ln(III)] and actinides [An(III)] from aqueous high-level wastes” (Universidad Autónoma de Madrid, priority 2006, dated 2008)

Tests used:
Format in all cases: physicochemical
[1] = Extraction capability from aqueous 3 mol/L nitric acid; details: aqueous [HNO3] 3 mol/L spiked with 152Eu(III) and 241Am(III)
Experimental: The organic solutions of the extractant compounds to be tested were prepared dissolving an amount of the extractant compound in the solvent considered in each case to reach the ligand concentration of 0.1 mol/L. The solvents considered were 1-octanol, n-heptane, n-dodecane, the industrial solvent "TPH" (hydrogenated tetrapropylene) used in the "La Hague" reprocessing plant of the COGEMA company (Compagnie générale des matières nucléaires) and different mixtures "TPH/1-octanol or n-dodecane/1-octanol".
Once said solution was obtained, its equilibration was carried out. To that end, 800 µL of the organic solution of the compound to be studied were contacted with 800 µL of nitric acid of 3 mol/L concentration and it was stirred vigorously in an oscillating shaker for 5 minutes. The phases were separated by centrifugation at 5000 rpm. 800 µL of the said organic phase were again contacted with 800 µL of nitric acid of 3 mol/L concentration for another 5 minutes of vigorous shaking. The phases were separated by centrifugation, the organic phase being considered to be equilibrated.
(§1) 600 µL of the organic phase of the compound to be studied, previously equilibrated, were contacted with 600 µL of aqueous phase consisting of a 3 mol/L nitric acid solution spiked with 600 Bq of ^152Eu and 600 Bq of ^241Am. It was stirred vigorously by means of an oscillating shaker for 30 minutes and the phases were separated by centrifugation at 5000 rpm. 400 µL were taken from each of the phases for determining the concentration of the radionuclides ^152Eu and ^241Am. This determination was carried out by means of the high energy gamma spectrometry technique with a high-purity Ge detector (Canberra Inc.), using the 122 keV line for the determination of ^152Eu concentration and the 59.5 keV line for the determination of ^241Am concentration. The distribution coefficient was calculated by relating the concentration of each of the radionuclides in the organic phase and in the aqueous phase, according to the expression: DM = ([M]org)/([M]aq) [formula]
(§2) The distribution coefficients and the selectivity factor of each of them were determined as indicated in sections A) to C).

[2] = Eu/Am selectivity factor in extraction from 3 mol/L nitric acid; details: aqueous [HNO3] 3 mol/L
Experimental: as §1
The Eu/Am selectivity factor was calculated by relating the corresponding distribution coefficients of Eu with those of Am in the same experimental conditions: SFEu/Am = DEu /DAm [formula]
as §2

[3] = Radiolytic stability, extraction capability after irradiation; details: after 1000 kGy; irradiated dissolved in n-dodecane/1-octanol (95:5)%vol, equilibrated with 3 mol/L nitric acid
Experimental: The tests of stability against irradiation were carried out in the NAYADE facility at CIEMAT site, with external ^60Co sources with an approximate activity of 5000 Ci, with a homogeneous irradiation flux. The dose rate applied in all the experiments was 4 kGy/h and integrated doses of 250 kGy, 500 kGy, 750 kGy and 1000 kGy were considered. The irradiation device consists of a metal cylinder which is introduced in a rack wherein the ^60CO sources are placed radially, such that the irradiation is homogeneous. The irradiation process is carried out submersing the device in a pool of water with a depth of 4 meters.
Irradiation tests of the solid compound (in the absence of solvent) and of the compound dissolved in the "n-dodecane/1-octanol (95:5)%vol" mixture, equilibrated with 3 mol/L nitric acid, were carried out. The organic solutions were prepared and equilibrated as detailed in the previous sections A) and B).
Once each programmed integrated dose was reached, the extraction capability of the organic samples was evaluated as detailed in section C).
The irradiation of compound 4 in solid form (in the absence of solvent) and dissolved at a 0.1 mol/L concentration in the "n-dodecane/1-octanol 1 (95:5)%vol" mixture, equilibrated with 3 mol/L nitric acid, was carried out. The applied dose rate was 4 kGy/h and the considered integrated doses were 250 kGy, 500 kGy, 750 kGy and 1000 kGy. After each integrated dose, the extraction capability of Am(III) and Eu(III) was evaluated as described in section C.
The considered integrated doses in this experiment were 500 kGy and 1000 kGy at a dose rate of 4 kGy/h.

[4] = Third phase formation in extraction from simulated HLLW; details: HLLW without oxalic acid and without HEDTA; TODGA 0.2 mol/L
Experimental: […] Extraction experiments were carried out with said simulated HLLW in a pure form and also adding oxalic acid and HEDTA to it. These complexing agents have shown to be effective in the DIAMEX process for the complexing of Mo, Zr (H2C2O4) and Pd (HEDTA).
The actinides Am (III), Cm (III) and Cf (III) as well as trivalent lanthanides were extracted with high distribution coefficients from HLLW with a 3.2 mol/L nitric acid concentration. […] As expected, Zr and Pd are not co-extracted when complexing agents are added to HLLW.

[5] = 0.1 mol/L in TPH/1-octanol (50:50)%vol

| Compound | DAm [1, 5] | DEu [1, 5] | SFEu/Am [2, 5] | further results |
| --- | --- | --- | --- | --- |
| 2-Dibutylcarbamoylmethoxy-N-[3-[(2-dibutylcarbamoyl-methoxy-acetylamino)methyl]benzyl]acetamide [Compound 3] | 99 | 183 | 1.9 |  |
| 2-Dibutylcarbamoylmethoxy-N-[6-(2-dibutylcarbamoyl-methoxyacetylamino)hexyl]acetamide [Compound 14] | 119 | 215 | 1.8 |  |
| 2-Dioctylcarbamoylmethoxy-N-[6-(2-dioctylcarbamoyl-methoxyacetylamino)hexyl]acetamide [Compound 15] |  |  |  | DAm ([1]; 0.1 mol/L in 1-octanol): 25; DEu ([1]; 0.1 mol/L in 1-octanol): 98; SFEu/Am ([2]; 0.1 mol/L in 1-octanol): 3.9 |
| CCCCCCCCN(C)C(=O)COCC(=O)NCc1cccc(CNC(=O)COCC(=O)N(C)CCCCCCCC)c1 [Compound 5, 2-[(Methyloctylcarbamoyl)methoxy]-N-[3-[(2-[(methyl-octyl-carbamoyl)methoxy]acetylamino]methyl]benzyl]-acetamide] | 83 | 309 | 3.7 |  |
| CC(C)CCN(CCC(C)C)C(=O)COCC(=O)NCc1cccc(CNC(=O)COCC(=O)N(CCC(C)C)CCC(C)C)c1 [Compound 6, 2-[[Bis(3-methylbutyl)carbamoyl]methoxy]-N-[3-[(2-[[bis-(3-methylbutyl)carbamoyl]methoxy]acetylamino)methyl]-benzyl]-acetamide] | 82 | 251 | 3.1 |  |
| CCCCCCCCN(CCCCCCCC)C(=O)COCC(=O)NCc1ccc(CNC(=O)COCC(=O)N(CCCCCCCC)CCCCCCCC)cc1 [Compound 8] | 67 | 276 | 4.1 |  |
| CCCCCC(C)Oc1cc(CNC(=O)COCC(=O)N(CCCC)CCCC)cc(CNC(=O)COCC(=O)N(CCCC)CCCC)c1 (stereo not drawn) [Compound 10, 2-Di-butylcarbamoylmethoxy-N-[3-[(2-dibutyl-carbamoyl-methoxyacetylamino)methyl]-5-(1-methylhexyloxy)benzyl]-acetamide] | 41 | 276 | 6.7 |  |
| CCCCCCCCCCCCOc1cc(CNC(=O)COCC(=O)N(CCCC)CCCC)cc(CNC(=O)COCC(=O)N(CCCC)CCCC)c1 [Compound 11, 2-Di-butylcarbamoylmethoxy-N-[3-[(2-dibutyl-carbamoyl-methoxyacetylamino)methyl]-5-dodecyloxybenzyl]acetamide] | 88 | 335 | 3.8 |  |
| CCCCN(CCCC)C(=O)COCC(=O)NCCCNC(=O)c1cc(C(C)(C)C)cc2c1Oc1c(C(=O)NCCCNC(=O)COCC(=O)N(CCCC)CCCC)cc(C(C)(C)C)cc1C2(C)C [Compound 19, 2,7-di-tert-butyl-9,9-dimethyl-9H-xanthen-4,5-dicarboxylic acid bis-[[3-(2-dibutylcarbamoylmethoxy-acetylamino)propyl]amide]] | 65 | 318 | 4.9 |  |
| CCCCCCCCN(CCCCCCCC)C(=O)COCC(=O)N(C)C [DMDODGA, N,N-dimethyl-N',N'-dioctyl-oxapentane-diamide, reference compound] | 477 | 789 | 1.7 |  |
| CCCCN(CCCC)C(=O)COCC(=O)N(CCCC)CCCC [TBDGA, N,N,N',N'-tetrabutyl-3-oxapentane-diamide, reference compound] | 476 | 680 | 1.4 |  |
| CCCCCCCCN(CCCCCCCC)C(=O)COCC(=O)N(CCCCCCCC)CCCCCCCC [TODGA, N,N,N',N'-tetraoctyl diglycolamide, reference compound] |  |  |  | DAm [3]: 121; DEu [3]: 458; third phase [4]: a third phase was observed |
